Test results published in patent publication US4279905A, “1-Benzoxepin-5 (2H)-one derivatives and pharmaceutical compositions” (Kali-Chemie Pharma GmbH, priority 1979, dated 1981).

Columns and labels:
[1] = test system: gastric peristalsis; assay: Testing of the gastric peristalsis (gastric pressure, barium chloride-stimulated stomach of narcotized rats); assay type: in vivo; settings: 20 mg/kg intraperitoneally, BaCl2 50 mg/kg/h i.v. infusion, compared with control value before compound; for Change in gastric pressure-wave amplitude: the values are: decrease in gastric amplitude; for change in vivo at 20 mg/kg: Rattus norvegicus, ip, read-out: Frequency Decrease in %
Source text: To determine the functioning of the gastric peristalsis, rats weighing about 200 g are narcotized by means of ketamine hydrochloride and xylazine. A catheter is introduced into the Vena jugularis of the narcotized rats and a tracheal catheter into the trachea. A stomach probe is inserted into their stomach and tied thereto. The probe is connected via a three-way cock with a Statham pressure imparting device (P 23 DB). The stomach is sealed off by a ligature at the pylorus and at the cardia. The stomach is filled with 3 ml of a 0.9% aqueous sodium chloride solution. The pressure waves produced by the stomach are continuously registered by a suitable recording device such by a Watanabe Multicorder (MC 641).
In conducting the test, a control value is obtained by inducing a stimulation of the stomach through a lengthy intravenous infusion of 50 mg/kg/h of bariumchloride and the amplitude and frequency of resultant pressure waves are measured. Subsequently, in order to determine the pharmacological effects, the compounds to be tested are dissolved in physiological sodium chloride solution or are suspended in Tylose MH 50 solution. The solutions or suspensions are then administered intraperitoneally to the rats in a dose of 20 mg/kg. The amplitudes and frequencies of the pressure wave-like movements of the stomach as they occur with the test solution and after administration of the compound to be tested, are compared.

[2] = Determination of acute toxicity (seven-day, single intraperitoneal dose); settings: in vivo, ip, fasting white NMRI mouse, single dose i.p., probit analysis, read-out: LP50 i.p.
Procedure: The acute seven-day toxicity is determined by intraperitoneal administration of a single dose of the respective compound to a fasting white NMRI mouse. The LD50 -values are calculated via electronic data processing by a probit analysis as described in the book "Grundbegriffe der Biometrie" (Basic Biometrical Definitions) by L. Cavalli-Sforza, page 153 et seq., published by Gustav Fischer Verlag, Stuttgart, 1964.

COCCNC1=CC(=O)c2ccccc2OC1 [I, 3-(β-methoxyethylamino)-1-benzoxepin-5(2H)-one]
Change in gastric pressure-wave amplitude [1]: 46%
change in vivo at 20 mg/kg [1]: 11%

CNC1=CC(=O)c2ccccc2OC1 [A, 3-methylamino-1-benzoxepin-5(2H)-one]
Change in gastric pressure-wave amplitude [1]: 56%
change in vivo at 20 mg/kg [1]: -18%
LD50 at 168 h [2]: 664 mg/kg

CNC1=CC(=O)c2ccc(C(C)(C)C)cc2OC1 [M, 3-methylamino-8-tert.-butyl-1-benzoxepin-5(2H)-one]
Change in gastric pressure-wave amplitude [1]: 72%
change in vivo at 20 mg/kg [1]: 10%

CNC1=CC(=O)c2cc(F)ccc2OC1 [O, 3-methylamino-7-fluoro-1-benzoxepin-5(2H)-one]
Change in gastric pressure-wave amplitude [1]: 37%
change in vivo at 20 mg/kg [1]: 1%

CNC1=CC(=O)c2cc(Cl)ccc2OC1 [N, 3-methylamino-7-chloro-1-benzoxepin-5(2H)-one]
Change in gastric pressure-wave amplitude [1]: 46%
change in vivo at 20 mg/kg [1]: -1%

CNC1=CC(=O)c2cc(C)ccc2OC1 [L, 3-methylamino-7-methyl-1-benzoxepin-5(2H)-one]
Change in gastric pressure-wave amplitude [1]: 75%
change in vivo at 20 mg/kg [1]: 15%

O=C1C=C(N2CCN(Cc3ccccc3)CC2)COc2ccccc21 [G, 3-(N-benzylpiperazino)-1-benzoxepin-5(2H)-one]
Change in gastric pressure-wave amplitude [1]: 31%
change in vivo at 20 mg/kg [1]: 10%
LD50 at 168 h [2]: 634 mg/kg

NC1=CC(=O)c2ccccc2OC1 [D, 3-amino-1-benzoxepin-5(2H)-one]
Change in gastric pressure-wave amplitude [1]: 45%
change in vivo at 20 mg/kg [1]: -12%
LD50 at 168 h [2]: 544 mg/kg

CCCCNC1=CC(=O)c2ccccc2OC1 [E, 3-(n-butylamino)-1-benzoxepin-5(2H)-one]
Change in gastric pressure-wave amplitude [1]: 26%
change in vivo at 20 mg/kg [1]: 36%
LD50 at 168 h [2]: 442 mg/kg

CC(C)NC1=CC(=O)c2ccccc2OC1 [C, 3-isopropylamino-1-benzoxepin-5(2H)-one]
Change in gastric pressure-wave amplitude [1]: 32%
change in vivo at 20 mg/kg [1]: -2%
LD50 at 168 h [2]: 544 mg/kg

CNC1=CC(=O)c2ccc(Cl)cc2OC1 [B, 3-methylamino-8-chloro-1-benzoxepin-5(2H)-one]
Change in gastric pressure-wave amplitude [1]: 58%
change in vivo at 20 mg/kg [1]: -16%
LD50 at 168 h [2]: 450 mg/kg

O=C1C=C(NCCc2ccccc2)COc2ccccc21 [Compound F, 3-phenethylamino-1-benzoxepin-5(2H)-one]
Change in gastric pressure-wave amplitude [1]: 29%
change in vivo at 20 mg/kg [1]: -7%

CNC1=CC(=O)c2ccc(C)cc2OC1 [K, 3-methylamino-8-methyl-1-benzoxepin-5(2H)-one]
Change in gastric pressure-wave amplitude [1]: 55%
change in vivo at 20 mg/kg [1]: 4%

O=C1C=C(N2CCOCC2)COc2ccccc21 [H, 3-morpholino-1-benzoxepin-5(2H)-one]
Change in gastric pressure-wave amplitude [1]: 12%
change in vivo at 20 mg/kg [1]: 17%
LD50 at 168 h [2]: 650 mg/kg
